Usually GI50 stands for the concentration giving 50% growth inhibition. Read a high GI50 as lower sensitivity of the cells.

This is an account of results in ChEMBL document CHEMBL1127915, “Isolation and structure of the symmetrical disteroidal alkaloids cephalostatin 12 and cephalostatin 13” (1994).

Values after ≈ are worked out from the molar mass of the structure shown.

Assay [1] relates to Panel (Carcinoma cell lines). The assay can be described thus: Inhibitory activity against human cancer cell line growth was determined. The class given is functional.
For assay [2], the system named is Panel (Carcinoma cell lines). Description: Effective dose for human cancer cell line growth inhibition was determined. It counts as functional. Particulars: read-out: ED50 (the source's name).

Take `C[C@@H]1[C@]2(O[C@H]3C=C4[C@@H]5CC[C@H]6Cc7nc8c(nc7C[C@]6(C)[C@H]5C[C@@H](O)[C@]4(C)[C@]31O)C[C@@H]1CC[C@H]3C4=C[C@@H]5O[C@]6(O[C@](C)(CO)C[C@H]6O)[C@@H](C)[C@]5(O)[C@@]4(C)[C@H](O)C[C@@H]3[C@@]1(C)[C@H]8O)O[C@](C)(CO)C[C@H]2O` [CEPHALOSTATIN 13]: the GI50 in assay [1] was greater than 1000 nM. The EC50 in assay [2] was determined as 0.046 µg/mL (≈ 0.0479 µM).

`C[C@@H]1[C@]2(O[C@H]3C=C4[C@@H]5CC[C@H]6Cc7nc8c(nc7C[C@]6(C)[C@H]5C[C@@H](O)[C@]4(C)[C@]31O)C[C@@H]1CC[C@H]3C4=C[C@@H]5O[C@]6(O[C@](C)(CO)C[C@H]6O)[C@@H](C)[C@]5(O)[C@@]4(C)[C@H](O)C[C@@H]3[C@@]1(C)C8)O[C@](C)(CO)C[C@H]2O` [CEPHALOSTATIN 12] yielded a GI50 in assay [1] of 400 nM. Further, the EC50 in assay [2] is 0.072 µg/mL (≈ 0.0762 µM).

Consider `C[C@@H]1[C@]2(O[C@H]3C=C4[C@@H]5CC[C@H]6Cc7nc8c(nc7C[C@]6(C)[C@H]5C[C@@H](O)[C@]4(C)[C@]31O)C[C@@H]1CC[C@H]3C4=CC[C@@H]5[C@H](C)[C@@]6(OC[C@]45C(=O)C[C@@H]3[C@@]1(C)C8)OC(C)(C)C[C@H]6O)O[C@](C)(CO)C[C@H]2O` [CEPHALOSTATIN 1], for which it took 1 nM to inhibit growth in assay [1] by half (GI50).
